{
  "source": "ChEMBL document CHEMBL4014292",
  "about": "“Novel 11-norbetaenone isolated from an entomopathogenic fungus Lecanicillium antillanum” (Bioorg Med Chem Lett, 2017)",
  "key": {"[1]": {"system": "EPC", "assay": "(§1) Antiangiogenic activity against human CD34-positive EPC assessed as inhibition of tube formation after 24 hrs by matrigel based inverted phase contrast microscopic analysis", "format": "functional, cell-based"}, "[2]": {"assay": "as §1", "format": "functional, cell-based"}, "[3]": {"system": "Staphylococcus aureus", "assay": "Antimicrobial activity against Methicillin-resistant Staphylococcus aureus ATCC 33592 at 2 mg/ml after 24 hrs by agar well-diffusion method", "format": "functional"}, "[4]": {"assay": "Cytotoxicity against CD34-positive human EPC at 25 to 50 ug/mL after 24 hrs by LDH release assay", "format": "cell-based"}, "[5]": {"system": "Neutrophil", "assay": "Anti-inflammatory activity in fMLP/CB-stimulated human neutrophils assessed as reduction in superoxide generation at 30 ug/mL preincubated for 5 mins followed by cytochalasin B addition for 3 mins and subsequent fMLP-stimulation for 10 mins by ferricytochrome c reduction based spectrophotometric assay", "format": "functional, cell-based"}, "[6]": {"system": "A549", "assay": "Antiproliferative activity against human A549 cells at 20 ug/mL after 72 hrs by MTT assay", "format": "functional, cell-based"}, "[7]": {"system": "Neutrophil", "assay": "Anti-inflammatory activity in fMLP/CB-stimulated human neutrophils assessed as reduction in elastase release at 30 ug/mL using MeO-Suc-Ala-Ala-Pro-Val-p-nitroanilide as substrate preincubated for 5 mins followed by cytochalasin B addition and subsequent fMLP-stimulation for 10 mins by spectrophotometric assay", "format": "functional, cell-based"}, "[8]": {"system": "HepG2", "assay": "Antiproliferative activity against human HepG2 cells at 20 ug/mL after 72 hrs by MTT assay", "format": "functional, cell-based"}, "[9]": {"system": "MDA-MB-231", "assay": "Antiproliferative activity against human MDA-MB-231 cells at 20 ug/mL after 72 hrs by MTT assay", "format": "functional, cell-based"}},
  "note": "The source made the active and inactive calls. The rule behind the calls is not given here.",
  "data": [
    {"smiles": "CC[C@@H](C)[C@H]1C=C[C@H]2[C@H](O)[C@@H](CO)C[C@@H](C)[C@@H]2[C@@]1(C)C(=O)CCO", "values": [
      {"measurement": "inhibition", "setting": "[1]", "value": "Dose-dependent effect"},
      {"measurement": "IC50", "setting": "[2]", "value": 34.1, "unit": "µg/mL"},
      {"measurement": "Activity", "setting": "[3]", "value": "inactive"},
      {"measurement": "Activity", "setting": "[4]", "value": "Non-Toxic"},
      {"measurement": "Activity", "setting": "[5]", "value": "inactive"},
      {"measurement": "Activity", "setting": "[6]", "value": "inactive"},
      {"measurement": "Activity", "setting": "[7]", "value": "inactive"},
      {"measurement": "Activity", "setting": "[8]", "value": "inactive"},
      {"measurement": "Activity", "setting": "[9]", "value": "inactive"}
    ]}
  ]
}
